Experimental data as given in ChEMBL document CHEMBL4261574 (Medchemcomm, 2018).

Assays:
[1] = target: T1, Prostaglandin G/H synthase 2 (Homo sapiens, UniProt P35354)
T1 sequence (P35354 whole entry): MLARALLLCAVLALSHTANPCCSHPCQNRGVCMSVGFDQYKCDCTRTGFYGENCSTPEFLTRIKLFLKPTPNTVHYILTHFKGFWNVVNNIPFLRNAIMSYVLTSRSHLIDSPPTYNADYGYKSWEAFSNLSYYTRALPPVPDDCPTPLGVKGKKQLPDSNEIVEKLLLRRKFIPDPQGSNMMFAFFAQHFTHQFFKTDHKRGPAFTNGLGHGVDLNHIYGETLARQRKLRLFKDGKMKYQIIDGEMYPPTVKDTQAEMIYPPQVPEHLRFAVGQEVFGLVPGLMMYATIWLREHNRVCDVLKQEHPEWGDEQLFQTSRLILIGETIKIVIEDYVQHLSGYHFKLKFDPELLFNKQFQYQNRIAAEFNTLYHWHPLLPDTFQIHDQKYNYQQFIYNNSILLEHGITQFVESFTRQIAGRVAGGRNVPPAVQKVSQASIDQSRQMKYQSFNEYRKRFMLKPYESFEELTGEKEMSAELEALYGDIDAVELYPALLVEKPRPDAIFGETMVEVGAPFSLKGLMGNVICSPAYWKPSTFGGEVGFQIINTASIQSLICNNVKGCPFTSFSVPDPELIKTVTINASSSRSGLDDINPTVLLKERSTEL

[2] = Selectivity index, ratio of IC50 for ovine COX-1 to IC50 for recombinant human COX-2
[3] = target: T2, Prostaglandin G/H synthase 1 (Ovis aries, UniProt P05979); assay: Inhibition of ovine COX-1 assessed as reduction of prostaglandin-G2 to prostaglandin-H2 by measuring oxidation of 10-acetyl-3,7-dihydroxyphenoxazine to resorufin after 5 mins by fluorescence based assay
T2 sequence (P05979 whole entry): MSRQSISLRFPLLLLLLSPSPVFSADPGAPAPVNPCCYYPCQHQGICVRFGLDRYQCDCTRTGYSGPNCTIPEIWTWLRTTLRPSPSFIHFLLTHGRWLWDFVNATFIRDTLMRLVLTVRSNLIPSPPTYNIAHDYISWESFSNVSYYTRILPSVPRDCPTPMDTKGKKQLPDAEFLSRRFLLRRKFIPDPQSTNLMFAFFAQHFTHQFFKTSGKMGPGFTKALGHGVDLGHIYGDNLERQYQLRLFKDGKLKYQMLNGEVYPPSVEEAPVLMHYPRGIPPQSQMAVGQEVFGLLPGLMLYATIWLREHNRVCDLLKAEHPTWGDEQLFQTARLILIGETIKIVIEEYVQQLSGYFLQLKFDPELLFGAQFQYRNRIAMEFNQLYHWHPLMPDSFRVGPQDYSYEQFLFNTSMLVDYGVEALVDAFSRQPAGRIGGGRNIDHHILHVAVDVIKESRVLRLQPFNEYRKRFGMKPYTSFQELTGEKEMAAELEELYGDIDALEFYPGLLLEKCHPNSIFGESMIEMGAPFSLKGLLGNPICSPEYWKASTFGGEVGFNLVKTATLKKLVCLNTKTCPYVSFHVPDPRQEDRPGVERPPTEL

[4] = Dissociation constant, pKa of compound; type: physicochemical
[5] = Solubility of compound in normal saline; type: physicochemical

Structure (SMILES)	IC50 [1] [µM]	Ratio IC50 [2]	IC50 [3] [µM]	pKa [4]	solubility [5]
CS(=O)(=O)c1ccc(-c2c(-c3ccc(F)cc3)noc2C=O)cc1	13.8	> 7	> 100	–	–
CS(=O)(=O)c1ccc(-c2conc2-c2ccc(F)cc2)cc1	0.057	> 1800	> 100	–	–
C[Si](C)(C)c1onc(-c2ccc(F)cc2)c1-c1ccc(S(C)(=O)=O)cc1	1.87	> 54	> 100	–	–
NS(=O)(=O)c1ccc(-c2conc2-c2ccc(F)cc2)cc1	0.042	> 2400	> 100	–	–
NS(=O)(=O)c1ccc(-c2cc(-c3ccc(F)cc3)no2)cc1	81.2	> 1.2	> 100	–	–
CS(=O)(=O)c1ccc(-c2c(-c3ccc(F)cc3)noc2C(F)(F)F)cc1	8.14	> 12	> 100	–	–
CS(=O)(=O)c1ccc(-c2c(-c3ccc(F)cc3)noc2Cl)cc1	0.351	28.7	10.1	–	–
COC(=O)c1onc(-c2ccc(F)cc2)c1-c1ccc(S(C)(=O)=O)cc1	> 100	–	> 100	–	–
CC(=O)c1onc(-c2ccc(F)cc2)c1-c1ccc(S(C)(=O)=O)cc1	> 100	–	> 100	–	–
CS(=O)(=O)c1ccc(-c2cc(-c3ccc(F)cc3)no2)cc1	> 100	–	> 100	–	–
CS(=O)(=O)c1ccc(-c2c(-c3ccc(F)cc3)noc2C(=O)c2ccccc2)cc1	> 100	–	> 100	–	–

Other lines, results leading:

IC50 [1] [µM]	Ratio IC50 [2]	IC50 [3] [µM]	pKa [4]	solubility [5]	Structure (SMILES)
0.13	> 770	> 100	–	–	C[Si](C)(C)c1onc(-c2ccccc2)c1-c1ccc(S(N)(=O)=O)cc1
0.247	> 400	> 100	–	–	CS(=O)(=O)c1ccc(-c2conc2-c2ccccc2)cc1
11.1	> 9	> 100	–	–	C[Si](C)(C)c1c(-c2ccccc2)noc1-c1ccc(S(N)(=O)=O)cc1
38.2	> 2.6	> 100	–	–	C[Si](C)(C)c1c(-c2ccc(F)cc2)noc1-c1ccc(S(N)(=O)=O)cc1
0.048	> 2100	> 100	–	–	NS(=O)(=O)c1ccc(-c2conc2-c2ccccc2)cc1
0.93	> 110	> 100	–	–	C[Si](C)(C)c1onc(-c2ccc(F)cc2)c1-c1ccc(S(N)(=O)=O)cc1
–	–	–	9.8	10 mM	Cc1onc(-c2ccccc2)c1-c1ccc(S(N)(=O)=O)cc1 [VALDECOXIB]
> 100	–	> 100	–	–	C[Si](C)(C)c1c(-c2ccccc2)noc1-c1ccc(S(C)(=O)=O)cc1
> 100	–	> 100	–	–	C[Si](C)(C)c1c(-c2ccc(F)cc2)noc1-c1ccc(S(C)(=O)=O)cc1
0.073	> 1400	> 100	–	–	Cc1onc(-c2ccc(F)cc2)c1-c1ccc(S(N)(=O)=O)cc1
10.8	> 9.3	> 100	–	–	NS(=O)(=O)c1ccc(-c2cc(-c3ccccc3)no2)cc1
13.5	> 7.4	> 100	–	–	CS(=O)(=O)c1ccc(-c2cc(-c3ccccc3)no2)cc1
–	–	–	–	> 50 mg/mL	CCC(=O)NS(=O)(=O)c1ccc(-c2c(-c3ccccc3)noc2C)cc1 [PARECOXIB]
4.17	23.9	> 100	–	–	C[Si](C)(C)c1onc(-c2ccccc2)c1-c1ccc(S(C)(=O)=O)cc1
